In patent publication US20250333418A1, “PURINE COMPOUNDS, COMPOSITIONS COMPRISING THEM AND USES THEREOF” (Novo Nordisk A/S, priority 2022, published 2025):

Legend:
human CB1 receptor [1] = target: T1, human CB1 receptor (Homo sapiens, UniProt P21554); experiment: bioSensAll β-arrestin2 plasma membrane translocation (+GRK2) BRET biosensor assay in HEK293 cells transfected with hCB1; test compound added before EC75-80 of agonist CP55,940 (100 nM); format: cell-based; conditions: βArrestin2 (+GRK2) BRET biosensor, vs CP55,940 100 nM (EC75-80), read-out: CB1 wt βarr2 IC50
T1 construct: expressed in transfected cells; host or cells: HEK293
T1 sequence (P21554 whole entry): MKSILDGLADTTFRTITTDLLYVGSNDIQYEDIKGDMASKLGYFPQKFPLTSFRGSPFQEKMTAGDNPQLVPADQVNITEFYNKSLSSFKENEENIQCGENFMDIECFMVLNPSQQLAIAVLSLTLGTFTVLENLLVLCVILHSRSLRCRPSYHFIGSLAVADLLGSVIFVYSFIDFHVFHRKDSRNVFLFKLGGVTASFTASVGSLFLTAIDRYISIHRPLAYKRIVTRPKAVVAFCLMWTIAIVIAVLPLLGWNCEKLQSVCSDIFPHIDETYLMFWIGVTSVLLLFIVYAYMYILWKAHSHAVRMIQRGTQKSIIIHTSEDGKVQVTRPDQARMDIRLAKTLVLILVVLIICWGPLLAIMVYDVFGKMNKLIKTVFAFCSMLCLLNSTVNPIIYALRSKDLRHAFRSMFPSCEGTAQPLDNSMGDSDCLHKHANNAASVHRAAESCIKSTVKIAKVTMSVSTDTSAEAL
Protocol: (§1) Using polyethylenimine (PEI) transfection agent, HEK293 cells were transfected in suspension with the human CB1 receptor and one of the following bioSensAll® assays: GAPL-Gi2, or β-arrestin plasma membrane (PM) translocation biosensor (+GRK2). Cells were directly seeded in 96-well plates immediately following transfection.
(§2) Cells were incubated with coelenterazine (luciferase substrate) and different test compounds prior to the measurement of BRET signals.
(§3) Used in this project are i) Gα plasma membrane (GAPL) biosensors and the ii) β-arrestin plasma membrane translocation biosensor.
ii) The multimolecular β-arrestin membrane recruitment biosensors allow for real-time spatio-temporal monitoring of β-arrestin 1 and β-arrestin 2 following GPCR activation. Specifically, these β-arrestin sensors were designed to detect the recruitment of proteins to the plasma membrane (β-arrestin PM) with localization to compartment resulting in an increased BRET signal.
(§4) HEK293 cells were maintained in Dulbecco's Modified Eagle Medium (DMEM) (Wisent; cat #319-030-CL: without sodium pyruvate, with 4.5 g/L glucose, without L-glutamine) supplemented with 1% penicillin-streptomycin (Wisent; cat #450-201-EL) and 2 or 10% fetal bovine serum (Wisent cat #090150).
(§5) HEK293 cells were co-transfected with hCB1 and one of the above-listed bioSensAll® assays. For each transfection condition: • the total amount of transfected DNA was kept constant at 1 μg per mL of cell culture to be transfected; whenever necessary, salmon sperm DNA (Invitrogen, cat #15632011) was used as ‘carrier’ DNA to supplement plasmid DNA (i.e., biosensor and receptor); • the PEI (polyethylenimine 25 kDa linear, PolyScience, cat #23966) to DNA ratio (ug:ug) was fixed at 3:1.
(§6) Transfections were carried out as follows: • DNA and PEI were first diluted separately in 150 mM NaCl. The volume of the diluent in each tube corresponds to 5% of the cell culture volume to be transfected. • Once DNA and PEI were diluted, the PEI-containing solution was added to the DNA solution and the DNA/PEI mixture immediately vortexed for 5 seconds. • The DNA/PEI mixture was incubated for at least 20 minutes at room temperature to allow for the formation of DNA/PEI complexes. • During the incubation, HEK293 cells were detached, counted and re-suspended in culture medium (composition specified above). • At the end of the incubation period, the DNA/PEI mixture was added to the cells. • Cells were finally distributed in 96-well plates (White Opaque 96-well/Microplates, Greiner, cat #655083 or CulturPlate-96, White Opaque 96-well Microplate, PerkinElmer, cat #6005688) at a density of 30,000 cells per well.
(§7) At 48 hours post-transfection: • Using 450-Select TS Biotek plate washer, culture medium was aspirated and replaced with 100 μL of Hank's Balanced Salt Solution buffer (HBSS) (Wisent, cat #319-067CL: without red phenol; with sodium bicarbonate, with calcium and magnesium, with HEPES) per well. • Plates were then incubated (equilibrated) at 37° C., 5% CO2 for 60 minutes. • Increasing doses of test compounds were then added to each well using the HP D300e digital dispenser (Tecan). All compounds were assayed at the following 12 concentrations (in nM) with each biosensor: 0.000, 0.013, 0.040, 0.120, 0.320, 0.960, 2.80, 8.00, 24.0, 70.0, 205 and 600. • Three to 5 minutes later, an assay-specific effective concentration (EC)75-80 of agonist CP55,940 (i.e., 0.1 nM and 100 nM for G[…]i2-GAPL or […]Arrestin2 (+GRK2) assay, respectively) was added to wells previously injected with test compound (i.e., previous step 3). […]

human CB1 receptor [2] = target: T1, human CB1 receptor; experiment: bioSensAll GAPL-Gi2 BRET biosensor assay in HEK293 cells transfected with hCB1; test compound added before EC75-80 of agonist CP55,940 (0.1 nM); format: cell-based; conditions: vs CP55,940 0.1 nM (EC75-80), read-out: CB1 wt Gi2 IC50
Protocol: as §1, §2, §3
i) GAPL sensors are used to monitor the activation of heterotrimeric G proteins at the plasma membrane upon receptor stimulation. Specifically, these multimolecular BRET sensors detect the plasma membrane recruitment of proteins that interact with active Gα subunits in a G protein family-selective manner. G protein activation following receptor stimulation generally leads to an increase in the BRET signal.
as §4, §5, §6, §7

Row | Structure (SMILES) | IC50 (human CB1 receptor [1]) [nM] | IC50 (human CB1 receptor [2]) [nM]
1 | CN(CCO)c1nc(N2CCC(C)(C(N)=O)CC2)c2nc(-c3ccccc3Cl)n(-c3ccc(Cl)cc3)c2n1 [Compound 19, 1-[8-(2-chlorophenyl)-9-(4-chlorophenyl)-2-[2-hydroxyethyl(methyl)amino]purin-6-yl]-4-methyl-piperidine-4-carboxamide] | 1.07 | 0.187
2 | COC1(C(N)=O)CCN(c2nc(OCC(C)(C)O)nc3c2nc(-c2ccccc2Cl)n3-c2ccc(Cl)cc2)CC1 [Compound 213] | 7.84 | 1.85
3 | CN(CCO)c1nc(N2CCC(C)(C(N)=O)CC2)c2nc(-c3ccc(C#N)nc3)n(-c3ccc(Cl)cc3)c2n1 [Compound 65, 1-[9-(4-chlorophenyl)-8-(6-cyano-3-pyridyl)-2-[2-hydroxyethyl(methyl)amino]purin-6-yl]-4-methyl-piperidine-4-carboxamide] | 1.7 | 0.534
4 | CC(=O)N1CCN(c2nc(OCC(C)(C)O)nc3c2nc(-c2ccccc2Cl)n3-c2ccc(Cl)cc2)CC1 [Compound 222] | 7.91 | 1.56
5 | CN(CCO)c1nc(N(C)C2CCOC2)c2nc(-c3ccccc3Cl)n(-c3ccc(Cl)cc3)c2n1 (stereo not drawn) [Compound 197] | 1.19 | 0.161
6 | CCOC1(C(N)=O)CCN(c2nc(OCC(C)(C)O)nc3c2nc(-c2ccccc2Cl)n3-c2ccc(Cl)cc2)CC1 [Compound 207] | 2.02 | 0.652
7 | O=S1(=O)CCN(c2nc(N3CCC(C(F)(F)F)CC3)c3nc(-c4ccccc4Cl)n(-c4ccc(Cl)cc4)c3n2)CC1 [Compound 32, 4-[8-(2-chlorophenyl)-9-(4-chlorophenyl)-6-[4-(trifluoromethyl)-1-piperidyl]purin-2-yl]-1,4-thiazinane 1,1-dioxide] | 3.02 | 0.509
8 | CN(CCO)c1nc(N2CCOCC2)c2nc(-c3ccccc3Cl)n(-c3ccc(Cl)cc3)c2n1 [Compound 183] | 0.785 | 0.167
9 | CC(C)(O)COc1nc(N2CCC(C)(O)CC2)c2nc(-c3ccccc3Cl)n(-c3ccc(Cl)cc3)c2n1 [Compound 199] | 3.27 | 0.732
10 | CC(C)(O)COc1nc(N2CCC(C)(C(N)=O)CC2)c2nc(-c3ccc(C#N)nc3)n(-c3ccc(Cl)cc3)c2n1 [Compound 109, 1-[9-(4-chlorophenyl)-8-(6-cyano-3-pyridyl)-2-(2-hydroxy-2-methyl-propoxy)purin-6-yl]-4-methyl-piperidine-4-carboxamide] | 61.5 | 13.2
11 | CC1(C(N)=O)CCN(c2nc(N3CCC[C@H]3CO)nc3c2nc(-c2ccc(C#N)nc2)n3-c2ccc(Cl)cc2)CC1 [Compound 130, 1-[9-(4-chlorophenyl)-8-(6-cyano-3-pyridyl)-2-[(2S)-2-(hydroxymethyl)pyrrolidin-1-yl]purin-6-yl]-4-methyl-piperidine-4-carboxamide] | 1.2 | 0.592
12 | CC(=O)NCCOc1nc(N2CCC(C(F)(F)F)CC2)c2nc(-c3ccccc3Cl)n(-c3ccc(Cl)cc3)c2n1 [Compound 53, N-[2-[8-(2-chlorophenyl)-9-(4-chlorophenyl)-6-[4-(trifluoromethyl)-1-piperidyl]purin-2-yl]oxyethyl]acetamide] | 13.1 | 0.966
13 | CC(C)OC1(C(N)=O)CCN(c2nc(OCC(C)(C)O)nc3c2nc(-c2ccccc2Cl)n3-c2ccc(Cl)cc2)CC1 [Compound 215] | 1.64 | 0.707
14 | CC1(C(N)=O)CCN(c2nc(N3CCNC[C@H]3CO)nc3c2nc(-c2ccccc2Cl)n3-c2ccc(Cl)cc2)CC1 [Compound 5, 1-[8-(2-chlorophenyl)-9-(4-chlorophenyl)-2-[(2S)-2-(hydroxymethyl)piperazin-1-yl]purin-6-yl]-4-methyl-piperidine-4-carboxamide] | 16 | 0.961
15 | CC(CO)Oc1nc(N2CCC(C(F)(F)F)CC2)c2nc(-c3ccccc3Cl)n(-c3ccc(Cl)cc3)c2n1 (single isomer, unassigned) [Compound 24, 2-[8-(2-chlorophenyl)-9-(4-chlorophenyl)-6-[4-(trifluoromethyl)-1-piperidyl]purin-2-yl]oxypropan-1-01] | 1.91 | 0.707
16 | CN(CCO)c1nc(N2CCC(C)(C(N)=O)CC2)c2nc(-c3ccccc3Cl)n(-c3ccc(Cl)cc3)c2n1 [Compound 158, 1-[8-(2-chlorophenyl)-9-(4-chlorophenyl)-2-((2-hydroxyethyl)(methyl)amino)-purin-6-yl]-4-methyl-piperidine-4-carboxamide] | 0.931 | 0.555
17 | CN(CCO)c1nc(N2CC3(COC3)C2)c2nc(-c3ccccc3Cl)n(-c3ccc(Cl)cc3)c2n1 [Compound 188] | 1.84 | 0.31
18 | CN(CCO)c1nc(N2CC(C)(C(N)=O)C2)c2nc(-c3ccccc3Cl)n(-c3ccc(Cl)cc3)c2n1 [Compound 73] | 1.77 | 0.556
19 | CN(CCO)C(=O)C1CN(c2nc(N(C)CCO)nc3c2nc(-c2ccccc2Cl)n3-c2ccc(Cl)cc2)C1 [Compound 187] | 40.4 | 3.97
20 | CCNC1(C(N)=O)CCN(c2nc(-n3ccnc3)nc3c2nc(-c2ccccc2Cl)n3-c2ccc(Cl)cc2)CC1 [Compound 152] | 1.2 | 0.716
21 | CC1(C(N)=O)CCN(c2nc(-n3ccnc3CO)nc3c2nc(-c2ccccc2Cl)n3-c2ccc(Cl)cc2)CC1 [Compound 43, 1-[8-(2-chlorophenyl)-9-(4-chlorophenyl)-2-[2-(hydroxymethyl)imidazol-1-yl]purin-6-yl]-4-methyl-piperidine-4-carboxamide] | 5.27 | 1.37
22 | C[C@H]1CN(c2nc(OCC(C)(C)O)nc3c2nc(-c2ccccc2Cl)n3-c2ccc(Cl)cc2)CCO1 [Compound 210] | 18.7 | 1.56
23 | CC(C)(O)COc1nc(N2CCC(C)(C(N)=O)CC2)c2nc(-c3ccncc3Cl)n(-c3ccc(Cl)cc3)c2n1 [Compound 121, 1-[9-(4-chlorophenyl)-8-(3-chloro-4-pyridyl)-2-(2-hydroxy-2-methyl-propoxy)purin-6-yl]-4-methyl-piperidine-4-carboxamide] | 17 | 2.6
24 | CCNC1(C(N)=O)CCN(c2nc(Cl)nc3c2nc(-c2ccccc2Cl)n3-c2ccc(Cl)cc2)CC1 [Compound 144, 1-(2-chloro-8-(2-chlorophenyl)-9-(4-chlorophenyl)-9H-purin-6-yl)-4-(ethylamino)piperidine-4-carboxamide] | 6.22 | 1.35
25 | CC(C)(O)CNc1nc(N2CCC(C)(C(N)=O)CC2)c2nc(-c3ccc(C#N)nc3)n(-c3ccc(Cl)cc3)c2n1 [Compound 111, 1-[9-(4-chlorophenyl)-8-(6-cyano-3-pyridyl)-2-[(2-hydroxy-2-methyl-propyl)amino]purin-6-yl]-4-methyl-piperidine-4-carboxamide] | 53.7 | 18.4
26 | CCOC1(C(N)=O)CCN(c2nc(OCC(C)(C)O)nc3c2nc(-c2ccc(C#N)nc2)n3-c2ccc(Cl)cc2)CC1 [Compound 120, 1-[9-(4-chlorophenyl)-8-(6-cyano-3-pyridyl)-2-(2-hydroxy-2-methyl-propoxy)purin-6-yl]-4-ethoxy-piperidine-4-carboxamide] | 25.4 | 16.9
27 | CN(CCO)c1nc(N2CCO[C@H](CO)C2)c2nc(-c3ccccc3Cl)n(-c3ccc(Cl)cc3)c2n1 [Compound 170] | 3.49 | 0.597
